Experimental data as given in ChEMBL document CHEMBL1127995, “Synthesis and structure-activity relationships of pyrrolidine-modified analogs of the potent cholinergic channel activator, ABT 418” (Bioorg Med Chem Lett, 1994).

Legend:
[1] = In vitro half life was determined; type: ADME
[2] = target: Neuronal acetylcholine receptor; alpha4/beta2 (Rattus norvegicus, UniProt P09483+P12390); experiment: Binding affinity for Nicotinic acetylcholine receptor alpha4-beta2 by displacement of [3H](-)-cytisine from whole rat brain membranes; type: cell membranes, Membrane
Chain of Neuronal acetylcholine receptor; alpha4/beta2 (P09483 whole entry): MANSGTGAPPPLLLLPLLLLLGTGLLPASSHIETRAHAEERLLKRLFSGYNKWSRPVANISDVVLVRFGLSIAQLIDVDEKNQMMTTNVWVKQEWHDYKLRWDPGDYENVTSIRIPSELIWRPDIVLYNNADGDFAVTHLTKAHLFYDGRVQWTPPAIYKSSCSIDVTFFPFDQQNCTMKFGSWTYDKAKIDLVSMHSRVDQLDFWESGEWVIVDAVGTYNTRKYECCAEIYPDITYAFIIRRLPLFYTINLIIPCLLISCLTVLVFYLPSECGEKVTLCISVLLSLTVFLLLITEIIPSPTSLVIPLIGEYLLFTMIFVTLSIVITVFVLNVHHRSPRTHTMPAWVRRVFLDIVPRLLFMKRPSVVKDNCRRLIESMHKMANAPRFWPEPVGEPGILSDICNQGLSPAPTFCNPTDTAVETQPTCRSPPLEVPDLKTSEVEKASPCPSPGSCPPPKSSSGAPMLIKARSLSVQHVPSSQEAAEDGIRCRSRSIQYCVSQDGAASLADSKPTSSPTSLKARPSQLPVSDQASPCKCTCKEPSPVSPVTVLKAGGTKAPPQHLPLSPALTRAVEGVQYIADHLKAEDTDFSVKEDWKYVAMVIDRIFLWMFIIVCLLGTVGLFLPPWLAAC
Chain of Neuronal acetylcholine receptor; alpha4/beta2 (P12390 whole entry): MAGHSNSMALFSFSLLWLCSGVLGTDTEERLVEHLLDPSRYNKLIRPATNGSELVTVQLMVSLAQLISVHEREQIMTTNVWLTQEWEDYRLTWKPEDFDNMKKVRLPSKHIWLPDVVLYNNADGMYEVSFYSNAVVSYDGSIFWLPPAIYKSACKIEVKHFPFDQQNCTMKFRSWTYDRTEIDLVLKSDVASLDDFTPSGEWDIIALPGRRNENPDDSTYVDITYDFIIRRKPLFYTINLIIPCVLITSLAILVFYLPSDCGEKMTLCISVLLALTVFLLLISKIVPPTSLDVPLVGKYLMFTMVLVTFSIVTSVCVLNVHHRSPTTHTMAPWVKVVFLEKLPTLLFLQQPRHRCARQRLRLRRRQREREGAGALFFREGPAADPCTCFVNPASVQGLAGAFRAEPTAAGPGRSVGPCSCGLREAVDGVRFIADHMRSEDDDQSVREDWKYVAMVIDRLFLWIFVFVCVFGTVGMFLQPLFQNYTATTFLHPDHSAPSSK

Row | Structure (SMILES) | half-life [1] [min] | Ki [2] [µM]
1 | Cc1cc([C@@H]2CC[C@@H](C)N2C)on1 | 26 | 0.071
2 | Cc1cc([C@@H]2CCCN2C)on1 [ABT-418] | 47.3 | 0.003
3 | Cc1cc([C@@H]2C(COC(=S)Oc3ccccc3)CCN2C)on1 (single isomer, unassigned) | – | 0.84
4 | CCCC[C@H]1CC[C@@H](c2cc(C)no2)N1C | – | 3.67
5 | Cc1cc([C@@H]2CC[C@@H](c3ccccc3)N2C)on1 | – | 8
6 | Cc1cc([C@@H]2C(C)CCN2C)on1 (single isomer, unassigned) | – | > 10
7 | Cc1cc([C@@H]2CC[C@H](c3ccccc3)N2C)on1 | – | > 10
8 | Cc1cc([C@@H]2[C@@H](CO)CCN2C)on1 | – | > 10
9 | Cc1cc([C@@H]2CC[C@H](C)N2C)on1 | 48.3 | 5
10 | COC(=O)CC1CC[C@@H](c2cc(C)no2)N1C (some centres undefined) | – | 3.5
11 | CCCC[C@@H]1CC[C@@H](c2cc(C)no2)N1C | – | 1.02
